Assay results reported in US20080249042A1, “All-Trans-Retinol: All-Trans-13,14-Dihydroretinol Saturase and Methods of Its Use” (UNIVERSITY OF WASHINGTON, priority 2004, published 2008).

Experiments:
CYP26C1 = molecular target: T1, CYP26C1 (Mus musculus, UniProt B2RXA7); conditions: 0.1 mM, 4 h, cells in culture
T1 sequence (B2RXA7 1-518): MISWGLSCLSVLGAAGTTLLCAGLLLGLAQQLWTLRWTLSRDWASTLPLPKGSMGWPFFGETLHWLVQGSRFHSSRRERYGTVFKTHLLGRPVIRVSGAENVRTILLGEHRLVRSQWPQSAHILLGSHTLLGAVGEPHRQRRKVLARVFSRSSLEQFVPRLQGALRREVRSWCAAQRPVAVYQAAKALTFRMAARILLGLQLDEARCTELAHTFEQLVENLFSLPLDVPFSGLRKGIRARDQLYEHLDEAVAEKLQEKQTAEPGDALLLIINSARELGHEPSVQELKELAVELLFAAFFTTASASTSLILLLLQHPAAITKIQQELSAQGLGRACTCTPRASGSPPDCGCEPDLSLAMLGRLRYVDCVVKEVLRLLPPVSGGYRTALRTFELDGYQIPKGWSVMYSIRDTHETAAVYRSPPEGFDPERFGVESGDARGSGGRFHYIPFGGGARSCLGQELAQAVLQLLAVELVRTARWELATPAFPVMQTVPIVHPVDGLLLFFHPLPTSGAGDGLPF
Protocol: CYP26A1 Oxidation Assay. […] After 24 h, the transfected cells were split into 12-well plates to ensure an equal number of transfected cells in each assay well. […] The peaks were identified based on their spectra and coelution with standards. The cell lysate was examined for expression of CYP26A1, -B1, and -C1 by SDS-PAGE and immunoblotting of the V5 epitope-tagged recombinant protein using an anti-V5 epitope monoclonal antibody (Invitrogen).

RDH12 = molecular target: T2, RDH12 (Homo sapiens, UniProt Q96NR8); assay: Oxidation by RDH12; type: biochemical; conditions: results not shown
T2 sequence (Q96NR8 1-316): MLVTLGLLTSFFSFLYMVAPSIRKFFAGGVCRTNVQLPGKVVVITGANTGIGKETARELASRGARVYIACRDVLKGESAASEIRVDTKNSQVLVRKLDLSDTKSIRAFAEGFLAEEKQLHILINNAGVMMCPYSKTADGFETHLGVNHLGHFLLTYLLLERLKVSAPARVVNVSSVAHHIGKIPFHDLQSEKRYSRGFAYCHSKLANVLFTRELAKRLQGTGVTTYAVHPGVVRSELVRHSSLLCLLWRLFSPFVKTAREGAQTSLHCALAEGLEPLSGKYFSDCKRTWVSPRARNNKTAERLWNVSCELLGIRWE

[1] = Conversion of DROL to DRA by RPE microsomes; type: in vitro ADME; conditions: in the presence of NAD and NADP
Protocol: Conversion of DROL to DRA in RPE. UV-treated RPE microsomes were prepared as described previously. Stecher, et al. J. Biol. Chem. 274:8577-8585, 1999. Twenty μl of UV-treated RPE microsomes (3 mg/ml) were mixed with 20 μM DROL or ROL substrates, 1% bovine serum albumin, and 50 mM Tris (pH 8.8) and were incubated at 37° C. for 60 min in the presence or absence of NAD NADP cofactor mixture at 50 μM each. In order to stop the reaction, proteins were precipitated by mixing with an equal volume of CH3CN followed by high speed centrifugation. […] A boiled RPE membrane control was used to assay nonenzymatic conversion of DROL. The elution of all-trans-DROL metabolites was monitored at 290 nm.

mouse RetSat = molecular target: T3, mouse RetSat (Mus musculus, UniProt Q64FW2); assay: RetSat saturase activity in Tet-induced HEKK-RetSat cells; type: cell-based; conditions: 40 μM substrate, overnight incubation
T3 construct: expressed in transfected cells
T3 sequence (Q64FW2 26-609): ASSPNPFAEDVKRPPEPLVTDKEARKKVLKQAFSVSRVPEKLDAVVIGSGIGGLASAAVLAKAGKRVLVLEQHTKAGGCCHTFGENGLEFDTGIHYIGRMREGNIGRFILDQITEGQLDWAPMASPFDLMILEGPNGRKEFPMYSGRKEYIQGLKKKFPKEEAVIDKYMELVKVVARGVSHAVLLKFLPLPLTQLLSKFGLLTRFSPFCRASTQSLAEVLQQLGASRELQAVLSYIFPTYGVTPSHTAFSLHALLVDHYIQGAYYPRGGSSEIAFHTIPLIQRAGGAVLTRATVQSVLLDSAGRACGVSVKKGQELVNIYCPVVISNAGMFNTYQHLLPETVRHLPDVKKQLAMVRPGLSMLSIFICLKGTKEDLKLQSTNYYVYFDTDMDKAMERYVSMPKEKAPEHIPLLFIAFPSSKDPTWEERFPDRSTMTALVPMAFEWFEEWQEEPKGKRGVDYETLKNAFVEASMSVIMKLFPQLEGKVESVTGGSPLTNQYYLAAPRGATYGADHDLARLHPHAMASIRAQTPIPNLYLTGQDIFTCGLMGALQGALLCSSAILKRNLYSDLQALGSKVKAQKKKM
Protocol: Enzyme assays of RetSat and CRTISO-catalyzed reactions. For enzyme assay, cells were seeded in six-well plates and expression of RetSat or CRTISO was induced with 1 μg/ml tetracycline 48 hr prior to analysis. Substrate preparation and addition were conducted under dim red light. Retinoid substrates were purified by HPLC as described above and dissolved in N,N-dimethylformamide (DMF) to a final concentration of 4 mM. Organic extract of tangerine tomatoes was dried under a stream of argon and resuspended in DMF. The substrates were diluted in 300 μl complete media (tetracycline 1 μg/ml) to a 40 μM final concentration, overlayed on cells, and incubated overnight in the dark at 37° C. in 5% CO2 and 100% humidity. Media and cells were collected by scraping, mixed with an equal volume of methanol. For retinol and dihydroretinol analysis the methanol:water mixture was extracted with two volumes of hexane, then the organic phase was dried, resuspended in hexane, and analyzed by normal-phase HPLC. […] For carotenoid analysis the organic phase was dried and resuspended in ethanol/tetrahydrofuran (9:1) and examined by reverse-phase HPLC System I. For retinoic acid analysis the 1:1 methanol:water mixture was acidified with 0.1 volumes of 12N HCl and extracted with 1 volume of chlorofom, dried and resuspended in ethanol and examined by reverse-phase HPLC System II.

Row | SMILES | Oxidation to polar metabolites by CYP26C1 (CYP26C1) | Oxidation to the aldehyde by RDH12 (RDH12) | Conversion to the acid by RPE microsomes [1] | Saturation by RetSat (substrate activity) (mouse RetSat)
1 | CC1=C(/C=C/C(C)=C/C=C/C(C)CC(=O)O)C(C)(C)CCC1 (stereo not drawn) [all-trans-DRA, all-trans-13,14-dihydroretinoic acid] | efficiently carried out the oxidation |  |  | 
2 | CC1=C(/C=C/C(C)=C/C=C/C(C)CCO)C(C)(C)CCC1 (stereo not drawn) [all-trans-DROL, all-trans-13,14-dihydroretinol] |  | much less so | efficiently converted | 
3 | CC1=C(/C=C/C(C)=C/C=C/C(C)=C/C(=O)O)C(C)(C)CCC1 [all-trans-RA, all-trans-retinoic acid, reference compound] | efficiently carried out the oxidation |  |  | not substrate
4 | CC1=C(/C=C/C(C)=C/C=C/C(C)=C/CO)C(C)(C)CCC1 [all-trans-ROL, all-trans-retinol] |  | active | catalyzed the conversion | good substrate
